From article PMC3561256, “Anti-infectious and anti-inflammatory effects of peptide fragments sequentially derived from the antimicrobial peptide centrocin 1 isolated from the green sea urchin, Strongylocentrotus droebachiensis” (AMB Express, 2012)
“And” between values parts separate entries of the source, which are not always exact repeats. Identical values can stand only once. No end group written: not given here.

Tests used:
MRSA (ATCC 33591) = type: in vivo; settings: rat excision wound model (MRSA or P. aeruginosa infected), topical application, experimental period
Text: The ability of CEN1 HC and CEN1 HC (Ser) to reduce bacterial counts was estimated in an excision wound model in rat designed based on previously published studies (Gisby and Bryant [2000]; McRipley and Whitney [1976]; Rittenhouse et al. [2006]; Saymen et al. [1972]). Briefly, female Sprague–Dawley rats (200–250 g, Charles River Laboratories, Sulzfeldt, Germany) were housed at the Laboratory of Experimental Biomedicine, Gothenburg, Sweden. They were kept in a 12-h light–dark cycle and were cared for in accordance with regulations for the protection of laboratory animals. All animal experiments were performed after prior approval from the local Ethics Committee for Animal Studies at the Administrative Court of Appeals in Gothenburg, Sweden. The rats were acclimatised in cages for a minimum of five days before surgery, with four rats in each cage. They had free access to water and pellets (Lab For, Lantmännen, Sweden). The rats were anaesthetised during the whole experiment and the anaesthesia was induced by an intra-peritoneal injection of a mixture of fentanyl (272 μg/kg; B. Braun Melsungen AG, Melsungen, Germany) and medetomidine hydrochloride (545 μg/kg; Domitor, Orion Pharma Animal Health AB, Sollentuna, Sweden). The backs of the rats were shaved and swabbed with 70% chlorhexidine alcohol (Fresenius Kabi AB, Uppsala, Sweden). […] Plates containing 30–300 CFU were counted. […]

S. aureus (ATCC 12600) = test: Minimal microbicidal concentration (MMC99) assay; type: cell-based, Staphylococcus aureus
Method: (§1) All the synthesised peptides were tested for their in vitro microbicidal activity against S. aureus (American Type Culture Collection (ATCC) 12600) and P. aeruginosa (ATCC 15442) using a minimal microbicidal concentration (MMC) assay as previously described (Haversen et al. [2010]). Bacteria were cultured in 3.7% brain heart infusion (BHI) broth (Difco, BD Diagnostics, Franklin Lakes, NJ) on a shaker at 250 rpm overnight at 37°C. The culture was diluted 1:10 in fresh 3.7% BHI and incubated for two additional hours to reach log-phase growth. The bacteria were pelleted by centrifugation at 900 × g and suspended in 0.037% BHI to a concentration of 10^7 CFU/mL, estimated by measuring optical density at 600 nm (OD600). To investigate the influence of physiological conditions on microbicidal effect of the peptides, four different assay media were used: 0.037% BHI, 0.037% BHI supplemented with 85 or 150 mM sodium chloride (NaCl), and 50% heat inactivated simulated wound fluid (h.i. SWF) composed of a 50:50 mixture of 0.1% peptone (Oxoid, Basingstoke, UK) in 150 mM NaCl and fetal bovine serum (FBS; PAA Laboratories GmbH, Pasching, Austria), diluted two times in ultra pure water. The peptides were serially diluted by twofold steps from 200 to 1.56 mg/L in the assay media used, and 100 μL of the peptide solutions were mixed with 5 μL bacterial suspensions in a 96 well plate (Nunc, Roskilde, Denmark) and incubated at 37°C for two hours. An aliquot of 5 μL from each well was aspirated and added as drops onto blood agar plates (Columbia agar; Oxoid, Basingstoke, UK) supplemented with 5% defibrinated horse blood (Swedish National Veterinary Institute (SVA), Uppsala, Sweden), and the plates were incubated overnight at 37°C. All samples were processed as duplicates. The minimal test compound concentration causing ≥99% reduction of bacteria was defined as the MMC99. The concentration of the bacterial suspension used in the assay was confirmed by viable count estimation on blood agar plates (Oxoid).
(§2) CEN1 HC was further screened for microbicidal activity against a panel of microbial strains using the MMC99 assay, as described above, except using only two different assay media; 0.037% BHI and 50% h.i. SWF. The following microbial strains were tested for sensitivity: S. aureus (ATCC 12600), MRSA (ATCC 33591), Staphylococcus epidermidis (ATCC 12228), Streptococcus pyogenes (ATCC 12344), Propionibacterium acnes (ATCC 6919) Escherichia coli (ATCC 11775), P. aeruginosa (ATCC 15442), Klebsiella pneumoniae (Culture collection, University of Gothenburg (CCUG) 59413, clinical isolate resistant to penicillins, cephalosporins, aztreonam and carbapenems, with the reference strain ATCC 13883), Acinetobacter baumannii (CCUG 58437, clinical isolate resistant to tobramycin, trimsulfa, ciprofloxacin, cefotaxim, ceftazidim, meropenem, pipera/tazobactam, with the reference strain ATCC 19606) and the yeast strain Candida albicans (ATCC 64549). Mupirocin (GlaxoSmithKline) and fusidic acid (LEO Pharma) were used as comparative control antibiotics.

[1] = system: P. aeruginosa (ATCC 15442); test: Minimal microbicidal concentration (MMC99) assay; type: cell-based, Pseudomonas aeruginosa
Method: as §1, §2

[2] = system: TNF-α secretion from THP-1 cells; test: Inhibition of TNF-α secretion from LPS-stimulated THP-1 derived macrophages (ELISA); type: cell-based, human; settings: PMA-differentiated THP-1 cells, LPS 0.1 ng/mL, peptide added 30 min after LPS, 6 h, triplicate, IC50 ± SEM, 4-parameter fit (Origin)
Method: The human monocytic cell line THP-1 (ATCC TIB-202) was cultured in RPMI 1640 medium (PAA Laboratories GmbH) supplemented with 10% FBS (PAA Laboratories GmbH), 1 mM sodium pyruvate (Sigma-Aldrich, St. Louis, MO), and 20 mM 4-(2-hydroxyethyl)-1-piperazineethanesulfonic acid (HEPES; PAA Laboratories GmbH). The cell density was adjusted to 10^6 cells/mL and 100 μL of the cell suspension was added to each well of 96 well plates (Sarstedt, Nümbrecht, Germany). The cells were treated with 10 ng/mL phorbol 12-myristate 13-acetate (PMA; Sigma-Aldrich) to differentiate the monocytes into macrophage-like cells. After 48 h, the cells were stimulated by adding 0.1 ng/mL LPS into the medium specified above, except that 10% FBS was replaced with 5% h.i. FBS. The LPS concentration used was selected based on in vitro titration experiments to give a close to maximum release of cytokines into the cell culture medium over a period of six hours (data not shown). The indicated concentrations of the peptides were added 30 min after addition of LPS. After six hours of incubation, the plates were centrifuged for six minutes at 400 × g and the supernatants were collected and kept frozen at −20°C until analysed for TNF-α and IL-6 production. The cytokine levels were analysed using enzyme-linked immunosorbent assay (ELISA; R&D Systems, Minneapolis, MN).

[3] = synthesis and antimicrobial testing of the different monomers; ref Li et al. [2010]; cited from earlier work
Text: Invertebrates are proving to be a rich source of AMPs, possibly because of their more pronounced reliance on innate immune functions in their defence against microbial pathogens compared to vertebrates. Many of the peptides isolated from marine species are structurally unique, display significant biological activities and are therefore expected to be useful drug leads (Sperstad et al. [2011]). In a previous study, we detected broad-spectrum antibacterial activity in coelomocyte (blood cell) extracts of the green sea urchin, S. droebachiensis (Haug et al. [2002]). Subsequently, an AMP named cen ...

[4] = Table 2 screen, medium 0.037% BHI + 85 mM NaCl, 2 h at 37°C, up to 200 mg/L, duplicates, maximum of at least two independent experiments
[5] = Table 2 screen, medium 0.037% BHI + 150 mM NaCl, 2 h at 37°C, up to 200 mg/L, duplicates, maximum of at least two independent experiments
[6] = Table 2 screen, medium 50% heat inactivated simulated wound fluid, 2 h at 37°C, up to 200 mg/L, duplicates, maximum of at least two independent experiments

Substance	Animal death or local reactions in connection to the application of the test article (MRSA (ATCC 33591))	S. aureus MMC99, 0.037% BHI + 85 mM NaCl (S. aureus (ATCC 12600); [4])	S. aureus MMC99, 0.037% BHI + 150 mM NaCl (S. aureus (ATCC 12600); [5])	S. aureus MMC99, 0.037% BHI (S. aureus (ATCC 12600); Table 2 screen, medium 0.037% BHI, ≥99% reduction of bacteria, 2 h at 37°C, tested up to 200 mg/L, duplicates, maximum value from at least two independent experiments)	S. aureus MMC99, 50% SWF (S. aureus (ATCC 12600); [6])	S. aureus MMC99, 0.037% BHI with 85 mM or 150 mM NaCl (S. aureus (ATCC 12600); text summary over both NaCl concentrations of Table 2a)	P. aeruginosa MMC99, 0.037% BHI + 85 mM NaCl [1, 4]	P. aeruginosa MMC99, 0.037% BHI + 150 mM NaCl [1, 5]	P. aeruginosa MMC99, 0.037% BHI ([1]; Table 2 screen, medium 0.037% BHI, 2 h at 37°C, up to 200 mg/L, duplicates, maximum of at least two independent experiments)	P. aeruginosa MMC99, 50% SWF [1, 6]	P. aeruginosa MMC99, 0.037% BHI with 85 mM or 150 mM NaCl ([1]; text summary over both NaCl concentrations of Table 2b, compared to 0.037% BHI only)	IC50, TNF-α secretion [2]	Antimicrobial activity of the synthesised monomers of centrocin 1 [3]
GWFKKTFHKVSHAVKSGIHAGQRGCSALGF [CEN1 HC]	No animal death or local reactions												
GW(Br)FKKTFHKVSHAVKSGIHAGQRGCSALGF [CEN1 HC-Br, heavy chain of centrocin 1, 30 residues, brominated tryptophan in position 2]		25 mg/L	50 mg/L	25 mg/L	25.0 to 50.0 mg/L and 50 mg/L	25.0 to 50.0 mg/L	12.5 mg/L	25 mg/L	25 mg/L	100.0 mg/L and 100 mg/L	no reduction in effect	~4.0 µg/mL	equally active as the original dimeric peptide
